According to US20110110958A1, “COMPOSITIONS AND METHODS FOR THE TREATMENT OF NEOPLASIA” (UNIVERSITY OF FLORIDA RESEARCH FOUNDATION, priority 2007, published 2011):

Legend:
[1] = test system: ATF-4 and CHOP in U87 cells; experiment: Immunofluorescence of ATF-4 and CHOP, U87; format: cell-based, human
U87MG glioma cells [2] = experiment: DNA laddering in glioma cells; format: cell-based, human; settings: J1 25 μM
U87MG glioma cells [3] = experiment: Cell viability assay (trypan blue exclusion), U87MG; format: cell-based, human; parameters: viable U87 cells after JAZ siRNA plus J1: dose or concentration left out as unconfirmed
Method: (§1) T98G, U87MG, U118MG, A172, LN18, DBTRG-05MG, LN229, M059J, WT4 human glioma cell lines were purchased from American Type Culture Collection (Rockville, Md.). Cell culture was conducted according to the ATCC's recommendations, available at www.atcc.org. Normal human astrocytes (NHA) were purchased from Lonza Bioscience (Switzerland). Cell cultures were grown according to the vendor's recommendations for each cell line. GL261 mouse glioma cell line was obtained from NCI (Frederick, Md.) and was grown in RPMI (Gibco BRL, Grand Island, N.Y.) containing 10% FBS, 1% Penicillin-Streptomycin, and 4 mM L-glutamine at 37° C. with 5% CO2.
(§2) J1 and its derivatives were provided by NCI developmental therapeutic program repository or purchased from Sigma-Aldrich Inc. Temozolomide (TMZ) was obtained from Schering-Plough (Kenilworth, N.J.). Both J1 and TMZ were dissolved in DMSO and stock solution of 100 mM were made.
JAZ siRNA and control siRNA were purchased from Invitrogen. Cell transfection was performed by using METAFECTENE PRO (Biontex Laboratories GmbH, Germany) following the manufacturer's instructions. Briefly, 40 pmoles of JAZ (or control) siRNA was added into 30 μl serum-free medium then mixed with METAFECTENE PRO solution and incubated for 15-20 minutes at room temperature. The final siRNA-lipid complex solution was added into one 24-well-plate well. The complex-containing medium was replaced with serum-containing medium at 3 hours after the transfection to reduce the toxicity.
(§3) Cell viability was measured by first seeding tumor cells in 24-well dishes at a density of 10,000 cells per well. Two days later, cells were transduced with JAZ (or control) siRNA. Forty-eight hours after transduction, cells were collected by trypsinization followed by the trypan blue exclusion method (Yang et al., J Biol Chem 1999; 274:27399-406) and counted manually using a hemacytometer. This experiment was repeated six times for each cell line and each time in triplicate.

lung cancer cells = experiment: Cytotoxicity to lung cancer cells (FIG. 13); format: cell-based
[4] = test system: DU145 prostate carcinoma cells; experiment: Cytotoxicity on DU145; format: cell-based
leukemia cells = experiment: Cytotoxicity to leukemia cells (FIG. 13); format: cell-based
HepG2 cells = experiment: Cytotoxicity on HepG2; format: cell-based, Human; settings: dose and time-dependent
[5] = test system: ATF-4 protein levels in U118MG cell line; experiment: Western blot of ATF-4, U118MG; format: cell-based, human; settings: U118MG, 24, 48, and 72 hours after J1 (10 and 25 μM)
Method: (§4) Whole cell protein extracts were prepared using cold lysis buffer consisting of: M-Per mammalian protein extraction reagent (Pierce Biochemical, Rockford, Ill.), 30 mM sodium fluoride, 1 mM sodium vanadate, and protease inhibitor cocktail tablets (Boehringer Mannheim). Samples were incubated on ice for 10 minutes and supernatants were recovered by centrifuging at 14,000 rpm at 4° C. for 20 minutes. Protein concentrations were determined by the BCA method (Pierce Biochemical). Proteins were separated on SDS-PAGE and transferred to nitrocellulose membrane (Osmonics, Minnetonka, Minn.). Blocking reagent is 5% nonfat dry milk in PBS (pH 7.4). Washing buffer is PBS (pH 7.4) with 0.1% Tween 20. Primary antibodies (p53, ATM, CHK1, CHK2) are commercially available. JAZ primary antibodies are described in Yang et al., Blood 108:4136-4145, 2006. The respective HRP-conjugated secondary antibodies were purchased from Boehringer Mannheim. Signals are visualized by using ECL chemiluminescence (Amersham, Indianapolis, Ind.) or Supersignal chemiluminescence (Pierce Biochemical) and Kodak X-OMAT films. Data acquired as integrated densitometric values are transformed to percentages of the values obtained from control samples visualized on the same blot.

T98G glioma cells = experiment: Cell viability assay (trypan blue exclusion), T98G; format: cell-based, human; settings: mutant-type p53-expressing T98G cells after J1 treatment
Method: as §1, §2
(§5) JAZ siRNA and control siRNA were purchased from Invitrogen. […]
as §3, with “Two days later, cells were transduced with JAZ (or control) siRNA.” left out, “This experiment was repeated six times for each cell line and each time in triplicate.” left out

WT4 glioma cells = experiment: Cell viability assay (trypan blue exclusion), WT4; format: cell-based, human; settings: p53-expressing and p53-non-expressing WT4 cells, J1 25 μM
Method: as §1, §2, §5
as §3, with “Two days later, cells were transduced with JAZ (or control) siRNA.” left out, “This experiment was repeated six times for each cell line and each time in triplicate.” left out

[6] = test system: JAZ, p53, and Bax protein levels; experiment: Western blot of JAZ, p53 and Bax; format: cell-based; settings: J1 25 μM
Method: as §4

GL261 glioma cells = experiment: Cytotoxicity on GL261; format: cell-based, mouse; settings: increasing concentrations
Method: as §1

U87 glioma cells = experiment: Quantitative proteomics (iTRAQ 4plex), U87; format: cell-based, human
Method: (§6) FIGS. 14A and 14B are tables showing quantitative proteomic analysis of proteome changes 48 hours after J1 (65 μM, NCI) treatment on U87 (FIG. 14A) and U118 (FIG. 14B) glioma cells. To further explore the molecular mechanism of J1's cytotoxic effects on glioma cells, a quantitative proteomics analysis (iTRAQ 4plex) was conducted after J1 treatment. There were four groups: untreated U87 and U118 glioma cells and J1 treated U87 and U118 glioma cells at 48 hours. Each group was in triplicate. […] HSPA5 activation is a marker for Unfolded Protein Response (UPR), a pathway that can contribute to cell death or cell survival.

[7] = test system: LNCAP prostate carcinoma cells; experiment: Cytotoxicity on LNCAP; format: cell-based
glioma cell viability = experiment: GI50 comparison of J1 with FDA approved chemotherapy drugs (FIG. 12); format: cell-based; settings: read-out: GI50 (concentration of drug that causes 50% growth inhibition)
colon cancer cells = experiment: Cytotoxicity to colon cancer cells (FIG. 13); format: cell-based
[8] = test system: primary cultured hepatocytes; experiment: Cytotoxicity on primary cultured hepatocytes; format: cell-based; settings: 24 hours after drug treatment
[9] = test system: ATF-4 protein levels in U87 glioma cells; experiment: Western blot of ATF-4, U87; format: cell-based, human; settings: U87, 24, 48, and 72 hours after J1 (10 and 25 μM)
Method: as §4

U118 glioma cells = experiment: Quantitative proteomics (iTRAQ 4plex), U118; format: cell-based, human
Method: as §6

glioma = experiment: In vitro glioma cytotoxic effects of J1 analogues (FIG. 18); format: cell-based

In the case of O=C(Nc1ccc(Cl)c(Cl)c1)Nc1ccccc1O [J1, N′-(2-hydroxy-phenyl)-N-(3,4-dichlorophenyl)Urea], the “nuclear ATF-4 staining” value ([1]; 12 hours after J1 (25 μM)) was “significantly increased”, the CHOP staining ([1]; 24 hours after J1 (25 μM)) was “significantly increased” and the DNA laddering formation (U87MG glioma cells [2]) was “increased DNA laddering formation”. For the same compound, the “viable U87 cells after JAZ siRNA plus J1” value (U87MG glioma cells [3]; 24 hours after JAZ siRNA transfection, J1 for additional 24 hours) was “did not lead to further reduction of viable U87 cells”, the “viable U87 cells” value (U87MG glioma cells [3]; 48 hours after J1 treatment (10 μM)) was “reduction of viable U87 cells” and the “viable tumor cells, time and dose course” value (U87MG glioma cells [3]; U87MG cells after J1 treatment) was “time- and dose-dependent significant reduction of viable tumor cells”. For the same compound, the “cytotoxicity to lung cancer cells” value (lung cancer cells) was “cytotoxic”, the “cytotoxic effects on DU145 cells” value [4] was “strong dose and time-dependent cytotoxic effects” and the “cytotoxicity to leukemia cells” value (leukemia cells) was “cytotoxic”. For the same compound, the “cytotoxic effects on HepG2 cells” value (HepG2 cells) was “significant cytotoxic effects”, the ATF-4 protein levels [5] was “time- and dose dependent increase” and the “viable tumor cells, time and dose course” value (T98G glioma cells) was “time- and dose-dependent significant reduction of viable tumor cells”. For the same compound, the viable tumor cells (WT4 glioma cells) was “time-dependent significant reduction of viable tumor cells”, the “JAZ, p53, and Bax protein levels” value [6] was “did not alter” and the “cytotoxic effects on GL261 glioma cells” value (GL261 glioma cells) was “progressively greater cytotoxic effects”. For the same compound, the “HSPA5 (GRP78, Bip) protein levels” value (U87 glioma cells; U87, 48 hours after J1 (65 μM)) was “consistently and significantly increased”, the PLOD2 protein level (U87 glioma cells; U87 glioma cells) was “significantly down-regulated” and the “proteins up-regulated by J1 treatment” value (U87 glioma cells; U87 glioma cells) was “PBEF1, HSPA5, ANXA1, TPI1, ANXA5, HSPA9, TGM2, NPM1, and RPLP2”. The “cytotoxic effects on LNCAP cells” value [7] was “strong dose and time-dependent cytotoxic effects”, the GI50 (glioma cell viability) was 10 µM and the “cytotoxicity to colon cancer cells” value (colon cancer cells) was “cytotoxic”. For the same compound, the “cytotoxic effects on primary cultured hepatocytes” value [8] was “minimal cytotoxic effects”, the ATF-4 protein levels [9] was “time- and dose dependent increase” and the “HSPA5 (GRP78, Bip) protein levels” value (U118 glioma cells; U118, 48 hours after J1 (65 μM)) was “consistently and significantly increased”. The “proteins up-regulated by J1 treatment” value (U118 glioma cells; U118 glioma cells) was “HSPA5, PBEF1, HSPA1B, VIM, LMNA and HIST2H3PS2”.

For O=C(Nc1ccc(Cl)cc1)Nc1ccc(Cl)c(Cl)c1 [J1-h, 3-(4-chloro-phenyl)-1-(3,4-dichlorophenyl) Urea], the “cytotoxic effects on DU145 cells” value [4] was “strong dose and time-dependent cytotoxic effects”, the “cytotoxic effects on HepG2 cells” value (HepG2 cells) was “significant cytotoxic effects” and the “in vitro glioma cytotoxic effects” value (glioma) was “glioma cytotoxic effects”. The “cytotoxic effects on GL261 glioma cells” value (GL261 glioma cells) was “progressively greater cytotoxic effects”, the “cytotoxic effects on LNCAP cells” value [7] was “strong dose and time-dependent cytotoxic effects” and the “cytotoxic effects on primary cultured hepatocytes” value [8] was “minimal cytotoxic effects”.

For Cn1nnc2c(C(N)=O)ncn2c1=O [Temozolomide, reference compound], the GI50 (glioma cell viability) was 100 µM.
